Source: ChEMBL document CHEMBL2384962, “Design, synthesis and evaluation of some new 4-aminopyridine derivatives in learning and memory” (Bioorg Med Chem Lett, 2013)
Activity calls are given as the source filed them. No cut-off for these calls is given here.

How the values were obtained:
[1] = tested on: Rattus norvegicus; experiment: Acute toxicity in Charles Foster albino rat assessed as mortality up to 100 mg/kg, po after 48 hrs; format: organism-based; set-up: dose 100 mg/kg, route oral; conditions: in vivo
[2] = tested on: Rattus norvegicus; experiment: Acute toxicity in Charles Foster albino rat assessed as feeding behaviour up to 100 mg/kg, po after 48 hrs; format: organism-based; set-up: dose 100 mg/kg, route oral; conditions: in vivo
[3] = tested on: Rattus norvegicus; experiment: Acute toxicity in Charles Foster albino rat assessed as blood pressure up to 100 mg/kg, po after 48 hrs; format: organism-based; set-up: dose 100 mg/kg, route oral; conditions: in vivo
[4] = tested on: Rattus norvegicus; experiment: Acute toxicity in Charles Foster albino rat assessed as pulse rate up to 100 mg/kg, po after 48 hrs; format: organism-based; set-up: dose 100 mg/kg, route oral; conditions: in vivo
[5] = tested on: Rattus norvegicus; experiment: Acute toxicity in Charles Foster albino rat assessed as heart rate up to 100 mg/kg, po after 48 hrs; format: organism-based; set-up: dose 100 mg/kg, route oral; conditions: in vivo
[6] = tested on: Rattus norvegicus; experiment: Acute toxicity in Charles Foster albino rat assessed as lacrimation up to 100 mg/kg, po after 48 hrs; format: organism-based; set-up: dose 100 mg/kg, route oral; conditions: in vivo
[7] = tested on: Rattus norvegicus; experiment: Acute toxicity in Charles Foster albino rat assessed as sleep up to 100 mg/kg, po after 48 hrs; format: organism-based; set-up: dose 100 mg/kg, route oral; conditions: in vivo
[8] = tested on: Rattus norvegicus; experiment: Acute toxicity in Charles Foster albino rat assessed as diarrhoea up to 100 mg/kg, po after 48 hrs; format: organism-based; set-up: dose 100 mg/kg, route oral; conditions: in vivo
[9] = tested on: Rattus norvegicus; experiment: Acute toxicity in Charles Foster albino rat assessed as salivation up to 100 mg/kg, po after 48 hrs; format: organism-based; set-up: dose 100 mg/kg, route oral; conditions: in vivo
[10] = tested on: Rattus norvegicus; experiment: Acute toxicity in Charles Foster albino rat assessed as convulsions up to 100 mg/kg, po after 48 hrs; format: organism-based; set-up: dose 100 mg/kg, route oral; conditions: in vivo
[11] = tested on: Rattus norvegicus; experiment: Acute toxicity in Charles Foster albino rat assessed as tremors up to 100 mg/kg, po after 48 hrs; format: organism-based; set-up: dose 100 mg/kg, route oral; conditions: in vivo
[12] = tested on: Rattus norvegicus; experiment: In vivo inhibition of AChE-mediated substrate hydrolysis in Charles Foster albino rat hypothalamus at 5 to 10 mg/kg, po administered for 8 days measured 1 hr post last dose; format: functional, organism-based; set-up: dose 5 to 10 mg/kg, route oral
[13] = tested on: Rattus norvegicus; experiment: In vivo inhibition of AChE-mediated substrate hydrolysis in Charles Foster albino rat hippocampus at 5 to 10 mg/kg, po administered for 8 days measured 1 hr post last dose; format: functional, organism-based; set-up: dose 5 to 10 mg/kg, route oral
[14] = tested on: Rattus norvegicus; experiment: In vivo inhibition of AChE-mediated substrate hydrolysis in Charles Foster albino rat prefrontal cortex at 5 to 10 mg/kg, po administered for 8 days measured 1 hr post last dose; format: functional, organism-based
[15] = tested on: Rattus norvegicus; experiment: Antiamnesic activity in Charles Foster albino rat assessed as reduction in scopolamine-induced increase in transfer latency at 10 mg/kg, po administered for 8 days measured 1 hr post last dose by elevated plus maze task (reference value: 62.50 +/- 0.76 s); format: functional
[16] = tested on: Rattus norvegicus; experiment: Antiamnesic activity in Charles Foster albino rat assessed as reduction in scopolamine-induced increase in transfer latency at 5 mg/kg, po administered for 8 days measured 1 hr post last dose by elevated plus maze task (reference value: 62.50 +/- 0.76 s); format: functional
[17] = tested on: Rattus norvegicus; experiment: Antiamnesic activity in Charles Foster albino rat assessed as reduction in scopolamine-induced increase in transfer latency at 10 mg/kg, po administered for 7 days measured 1 hr post last dose by elevated plus maze task (reference value: 67.67 +/- 0.88 s); format: functional
[18] = tested on: Rattus norvegicus; experiment: Antiamnesic activity in Charles Foster albino rat assessed as reduction in scopolamine-induced increase in transfer latency at 5 mg/kg, po administered for 7 days measured 1 hr post last dose by elevated plus maze task (reference value: 67.67 +/- 0.88 s); format: functional
[19] = tested on: Rattus norvegicus; experiment: Antiamnesic activity in po dosed Charles Foster albino rat assessed as reduction in scopolamine-induced increase in transfer latency after 7 to 8 days by elevated plus maze task; format: functional, organism-based
[20] = Selectivity ratio of IC50 for human serum BChE to IC50 for electric eel AChE
[21] = target: T1, Cholinesterase (Homo sapiens, UniProt P06276); experiment: Inhibition of human serum BChE using butyrylthiolcholine iodide as substrate incubated for 20 mins prior to substrate addition by Ellman's method
T1 sequence (P06276 whole entry): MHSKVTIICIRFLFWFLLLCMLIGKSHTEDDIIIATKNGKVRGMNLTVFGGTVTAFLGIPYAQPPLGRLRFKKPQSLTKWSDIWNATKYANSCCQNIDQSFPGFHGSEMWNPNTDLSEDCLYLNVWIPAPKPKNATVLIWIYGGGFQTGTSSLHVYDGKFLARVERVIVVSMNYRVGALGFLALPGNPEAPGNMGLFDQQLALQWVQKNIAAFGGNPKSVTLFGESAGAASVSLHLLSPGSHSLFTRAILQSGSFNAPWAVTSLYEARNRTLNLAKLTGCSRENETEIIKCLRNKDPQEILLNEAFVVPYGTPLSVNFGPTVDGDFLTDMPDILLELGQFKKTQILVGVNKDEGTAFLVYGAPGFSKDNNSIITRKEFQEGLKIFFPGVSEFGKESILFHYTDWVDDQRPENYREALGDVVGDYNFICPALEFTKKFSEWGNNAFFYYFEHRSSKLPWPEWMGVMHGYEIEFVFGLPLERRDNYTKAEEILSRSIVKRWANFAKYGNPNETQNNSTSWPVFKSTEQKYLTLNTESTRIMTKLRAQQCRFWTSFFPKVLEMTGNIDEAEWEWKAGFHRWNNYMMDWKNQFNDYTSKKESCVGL

[22] = target: T2, Acetylcholinesterase (Electrophorus electricus, UniProt O42275); experiment: Inhibition of electric eel AChE using […] as substrate incubated for 20 mins prior to substrate addition by Ellman method
T2 sequence (O42275 whole entry): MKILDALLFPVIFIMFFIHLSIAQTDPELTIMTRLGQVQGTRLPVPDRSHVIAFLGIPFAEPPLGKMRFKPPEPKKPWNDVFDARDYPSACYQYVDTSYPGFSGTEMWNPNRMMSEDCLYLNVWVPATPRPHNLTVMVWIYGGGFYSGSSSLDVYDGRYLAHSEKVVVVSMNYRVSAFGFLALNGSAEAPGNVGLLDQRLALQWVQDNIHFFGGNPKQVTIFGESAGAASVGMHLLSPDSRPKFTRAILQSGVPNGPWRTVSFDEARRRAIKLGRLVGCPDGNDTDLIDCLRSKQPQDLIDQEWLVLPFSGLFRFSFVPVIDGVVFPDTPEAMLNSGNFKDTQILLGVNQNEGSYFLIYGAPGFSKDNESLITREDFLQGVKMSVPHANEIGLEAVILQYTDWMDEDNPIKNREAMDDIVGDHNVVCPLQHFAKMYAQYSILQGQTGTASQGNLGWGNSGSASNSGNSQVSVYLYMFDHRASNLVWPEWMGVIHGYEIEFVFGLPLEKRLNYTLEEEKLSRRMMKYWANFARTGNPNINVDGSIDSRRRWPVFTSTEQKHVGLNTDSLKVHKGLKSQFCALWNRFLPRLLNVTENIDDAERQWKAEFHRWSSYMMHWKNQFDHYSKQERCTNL

[23] = target: T1, Cholinesterase; experiment: Competitive inhibition of human serum BChE using butyrylthiolcholine iodide as substrate by Lineweaver-Burk plot analysis
[24] = target: T2, Acetylcholinesterase; experiment: Non-competitive inhibition of electric eel AChE using […] as substrate by Lineweaver-Burk plot analysis

In the case of `O=C(O)/C=C\C(=O)Nc1ccncc1`, the Activity [1] is reported as “Non-toxic”, the Activity [2] is reported as “Non-toxic” and the Activity [3] is reported as “Non-toxic”. For the same compound, the Activity [4] was “Non-toxic”, the Activity [5] was “Non-toxic” and the Activity [6] was “Non-toxic”. The Activity [7] was “Non-toxic”, the Activity [8] was “Non-toxic” and the Activity [9] was “Non-toxic”. For the same compound, the Activity [10] was “Non-toxic”, the Activity [11] was “Non-toxic” and the inhibition [12] was “Active”. For the same compound, the inhibition [13] was “Active”, the inhibition [14] was “Active” and the Time [15] was 72.5 s. For the same compound, the Time [16] was 75.33 s, the Time [17] was 77.67 s and the Time [18] was 80.5 s. The Activity [19] was “Dose-dependent effect”, the Ratio IC50 [20] was 13.5 and the IC50 [21] was 657 µM. The IC50 [22] was 48.7 µM.
For `O=C1CCC(=O)N1c1ccncc1`, the Activity [1] was “Non-toxic”, the Activity [2] was “Non-toxic” and the Activity [3] was “Non-toxic”. The Activity [4] was “Non-toxic”, the Activity [5] was “Non-toxic” and the Activity [6] was “Non-toxic”. For the same compound, the Activity [7] was “Non-toxic”, the Activity [8] was “Non-toxic” and the Activity [9] was “Non-toxic”. The Activity [10] was “Non-toxic”, the Activity [11] was “Non-toxic” and the inhibition [12] was “Active”. The inhibition [13] was “Active”, the inhibition [14] was “Active” and the Time [15] was 58.33 s. It also gave a Time [16] of 60.67 s, a Time [17] of 65.5 s and a Time [18] of 66.83 s. For the same compound, the Activity [19] was “Dose-dependent effect”, the Ratio IC50 [20] was 7.79 and the IC50 [21] was 3.82 µM. For the same compound, the IC50 [22] was 0.49 µM.
In the case of `O=C1C=CC(=O)N1c1ccncc1`, the Ki [23] is reported as 15.6 µM, the Ki [24] is reported as 0.042 µM and the Activity [1] is reported as “Non-toxic”. For the same compound, the Activity [2] was “Non-toxic”, the Activity [3] was “Non-toxic” and the Activity [4] was “Non-toxic”. For the same compound, the Activity [5] was “Non-toxic”, the Activity [6] was “Non-toxic” and the Activity [7] was “Non-toxic”. For the same compound, the Activity [8] was “Non-toxic”, the Activity [9] was “Non-toxic” and the Activity [10] was “Non-toxic”. For the same compound, the Activity [11] was “Non-toxic”, the inhibition [12] was “Active” and the inhibition [13] was “Active”. For the same compound, the inhibition [14] was “Active”, the Time [15] was 53.83 s and the Time [16] was 56.33 s. The Time [17] was 61.33 s, the Time [18] was 64.67 s and the Activity [19] was “Dose-dependent effect”. The Ratio IC50 [20] was 367, the IC50 [21] was 11 µM and the IC50 [22] was 0.03 µM.
For `O=C(O)CCC(=O)Nc1ccncc1`, the Activity [1] was “Non-toxic”, the Activity [2] was “Non-toxic” and the Activity [3] was “Non-toxic”. For the same compound, the Activity [4] was “Non-toxic”, the Activity [5] was “Non-toxic” and the Activity [6] was “Non-toxic”. For the same compound, the Activity [7] was “Non-toxic”, the Activity [8] was “Non-toxic” and the Activity [9] was “Non-toxic”. For the same compound, the Activity [10] was “Non-toxic”, the Activity [11] was “Non-toxic” and the inhibition [12] was “Active”. The inhibition [13] was “Active”, the inhibition [14] was “Active” and the Time [15] was 70 s. For the same compound, the Time [16] was 71.67 s, the Time [17] was 74.83 s and the Time [18] was 77.67 s. The Activity [19] was “Dose-dependent effect”, the Ratio IC50 [20] was 1.39 and the IC50 [21] was 56.5 µM. It also gave an IC50 [22] of 40.3 µM.
